Measurements taken from patent US20100267784A1, “NOVEL 4,5-DIHYDROISOXAZOLES WITH ESTROGENIC ACTIVITY” (priority 2007, published 2010).

Assays:
ERα = molecular target: T1, ERα (Homo sapiens, UniProt P03372); assay: ERα reporter (luciferase) transactivation assay in transfected HEK293 cells; type: cell-based; parameters: expressed in transfected cells; host or cells: HEK293; conditions: sample concentration 10 μM, 24 hours, mean of at least three independent transfections
T1 sequence (P03372 1-595): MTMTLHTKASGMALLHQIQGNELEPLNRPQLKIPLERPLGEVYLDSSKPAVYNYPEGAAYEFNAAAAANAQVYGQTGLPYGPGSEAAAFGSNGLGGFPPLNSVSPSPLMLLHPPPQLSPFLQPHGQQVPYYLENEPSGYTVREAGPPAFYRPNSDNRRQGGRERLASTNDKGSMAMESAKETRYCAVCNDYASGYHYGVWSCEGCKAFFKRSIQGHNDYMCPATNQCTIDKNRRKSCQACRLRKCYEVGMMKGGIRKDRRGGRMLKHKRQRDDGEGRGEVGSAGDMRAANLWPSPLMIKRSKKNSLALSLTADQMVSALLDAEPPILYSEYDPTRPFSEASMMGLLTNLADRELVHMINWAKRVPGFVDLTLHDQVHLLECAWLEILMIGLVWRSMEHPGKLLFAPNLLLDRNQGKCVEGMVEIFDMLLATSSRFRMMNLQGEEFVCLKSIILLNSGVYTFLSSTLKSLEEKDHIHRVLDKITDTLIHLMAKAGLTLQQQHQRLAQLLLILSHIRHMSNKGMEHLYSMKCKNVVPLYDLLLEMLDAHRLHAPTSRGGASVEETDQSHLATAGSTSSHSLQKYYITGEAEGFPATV
Procedure: (§1) Determination of the Estrogen Activity of the Compounds: Cell Culture, Transfection and Reporter Assays
(§2) All other reagents were of reagent grade from Sigma or Fluka. One day before transfection, HEK293 cells were seeded in 48-well plates (70×10^3 cells per well) in phenol-free Dulbecco's modified Eagle medium supplemented with 5% delipidated fetal bovine serum (Sigma) and antibiotics. After a medium change, the cells were transfected for 4 hours with 5 ng ERα or ERβ expression vector, 75 ng reporter plasmid pERE2TATA-LUC and 20 ng control plasmid pCMVβ by the calcium phosphate method. After transfection, the cells received fresh medium containing either vehicle (0.1% v/v) or test compound (10 μM). After 24 hours, the cells were washed, lysed and luciferase and β-galactosidase activities were determined from 20 μl of lysates with the Victor^2TM reader (PerkinElmer Wallac, Turku, Finland). […] The data are means ±SEM of at least three independent transfections.

ERβ = ERβ (Homo sapiens, UniProt Q92731); assay: ERβ reporter (luciferase) transactivation assay in transfected HEK293 cells; type: cell-based; parameters: expressed in transfected cells; host or cells: HEK293; conditions: for ERβ receptor activation relative to 10 nM E2 corresponding 100: sample concentration 10 μM, 24 hours, mean of at least three independent transfections; for activation at 10 µM: HEK293, 24 h, read-out: ERβ receptor activation relative to 10 nM E2 corresponding 100, sample concentration 10 μM, mean of at least three independent transfections
Sequence of ERβ (Q92731 whole entry): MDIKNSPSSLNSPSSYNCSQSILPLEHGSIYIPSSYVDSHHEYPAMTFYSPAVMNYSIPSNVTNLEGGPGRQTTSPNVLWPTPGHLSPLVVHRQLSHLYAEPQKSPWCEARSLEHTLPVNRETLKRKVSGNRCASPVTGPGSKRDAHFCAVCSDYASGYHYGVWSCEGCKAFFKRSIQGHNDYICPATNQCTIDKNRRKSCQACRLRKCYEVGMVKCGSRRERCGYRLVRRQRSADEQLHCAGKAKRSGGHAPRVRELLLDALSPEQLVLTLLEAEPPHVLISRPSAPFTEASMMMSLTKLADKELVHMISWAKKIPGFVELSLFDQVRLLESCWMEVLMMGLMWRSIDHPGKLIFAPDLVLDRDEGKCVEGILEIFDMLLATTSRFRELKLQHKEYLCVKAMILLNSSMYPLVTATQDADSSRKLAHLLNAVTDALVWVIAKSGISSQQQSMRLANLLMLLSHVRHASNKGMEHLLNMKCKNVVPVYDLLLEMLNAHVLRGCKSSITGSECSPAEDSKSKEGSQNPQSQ
Procedure: as §1, §2

In the case of `c1ccc(CCC2=NOC(Cc3ccc4ccccc4c3)C2)cc1` (single isomer, unassigned) [68a, 5-naphthalen-2-yl-methyl-3-phenethyl-4,5-dihydroisoxazole], the “ERα receptor activation relative to 10 nM E2 corresponding 100” value (ERα) is reported as 22.3% and the “ERβ receptor activation relative to 10 nM E2 corresponding 100” value (ERβ) is reported as 8.2%.

With `c1ccc(CCCC2=NOC(Cc3ccccc3)C2)cc1` (single isomer, unassigned) [114a, 5-Benzyl-3-(3-phenyl-propyl)-4,5-dihydro-isoxazole] the “ERα receptor activation relative to 10 nM E2 corresponding 100” value (ERα) was 31.3% and the “ERβ receptor activation relative to 10 nM E2 corresponding 100” value (ERβ) was 13.6%.

`Oc1ccc(CC2CC(CCc3ccccc3O)=NO2)cc1` (single isomer, unassigned) [95b, 5-(4-Hydroxy-benzyl)-3-[2-(2-hydroxy-phenyl)-ethyl]-4,5-dihydro-isoxazole] was tested, and the “ERα receptor activation relative to 10 nM E2 corresponding 100” value (ERα) was 6.2% and the “ERβ receptor activation relative to 10 nM E2 corresponding 100” value (ERβ) was 0.6%.

`Oc1ccc(CCC2=NOC(Cc3ccc(F)cc3)C2)cc1` (single isomer, unassigned) [98b, 5-(4-Fluoro-benzyl)-3-[2-(4-hydroxy-phenyl)-ethyl]-4,5-dihydro-isoxazole] was tested, and the “ERα receptor activation relative to 10 nM E2 corresponding 100” value (ERα) was 5.7% and the “ERβ receptor activation relative to 10 nM E2 corresponding 100” value (ERβ) was 4.4%.

For `c1ccc(CCC2CC(c3ccccc3)=NO2)cc1` (single isomer, unassigned) [111b, 5-Phenethyl-3-phenyl-4,5-dihydroisoxazole], the “ERα receptor activation relative to 10 nM E2 corresponding 100” value (ERα) was 1.1% and the “ERβ receptor activation relative to 10 nM E2 corresponding 100” value (ERβ) was −6.0%.

For `c1ccc(CCC2=NOC(Cc3ccccc3)C2)cc1` (single isomer, unassigned) [109a, 5-Benzyl-3-phenethyl-4,5-dihydroisoxazole], the “ERα receptor activation relative to 10 nM E2 corresponding 100” value (ERα) was 68.4% and the activation at 10 µM (ERβ) was 1.1%.

In the case of `c1ccc(CC2CC(c3ccccc3)=NO2)cc1` (single isomer, unassigned) [107a, 5-Benzyl-3-phenyl-4,5-dihydroisoxazole], the “ERα receptor activation relative to 10 nM E2 corresponding 100” value (ERα) is reported as −1.0% and the activation at 10 µM (ERβ) is reported as 6.6%.

For `Oc1ccc(CCC2=NOC(CCc3ccccc3)C2)cc1` (single isomer, unassigned) [106a, 3-[2-(4-Hydroxy-phenyl)-ethyl]-5-phenethyl-4,5-dihydro-isoxazole], the “ERα receptor activation relative to 10 nM E2 corresponding 100” value (ERα) was 62.8% and the “ERβ receptor activation relative to 10 nM E2 corresponding 100” value (ERβ) was 15.4%.

With `Oc1ccc(CCCC2=NOC(Cc3ccccc3)C2)cc1` (single isomer, unassigned) [99a, 5-Benzyl-3-[3-(4-hydroxy-phenyl)-propyl]-4,5-dihydro-isoxazole] the “ERα receptor activation relative to 10 nM E2 corresponding 100” value (ERα) was 153.7% and the “ERβ receptor activation relative to 10 nM E2 corresponding 100” value (ERβ) was 78.2%.

With `c1ccc(CCC2=NOC(c3ccccc3)C2)cc1` (single isomer, unassigned) [110a, 3-Phenethyl-5-phenyl-4,5-dihydroisoxazole] the “ERα receptor activation relative to 10 nM E2 corresponding 100” value (ERα) was 16.4% and the activation at 10 µM (ERβ) was 9.8%.

For `Oc1ccc(CCCC2=NOC(Cc3ccccc3)C2)cc1` (single isomer, unassigned) [99b, 5-Benzyl-3-[3-(4-hydroxy-phenyl)-propyl]-4,5-dihydro-isoxazole], the “ERα receptor activation relative to 10 nM E2 corresponding 100” value (ERα) was 75.1% and the “ERβ receptor activation relative to 10 nM E2 corresponding 100” value (ERβ) was 19.8%.

With `CC1(c2ccccc2)CC(CCCc2ccccc2)=NO1` (stereo not shown) [115ab, 5-Methyl-5-phenyl-3-(3-phenyl-propyl)-4,5-dihydro-isoxazole] the “ERα receptor activation relative to 10 nM E2 corresponding 100” value (ERα) was 69.5% and the activation at 10 µM (ERβ) was 15.5%.

In the case of `Oc1ccccc1CCC1=NOC(Cc2ccccc2)C1` (single isomer, unassigned) [91b, 5-Benzyl-3-[2-(2-hydroxy-phenyl)-ethyl]-4,5-dihydro-isoxazole], the “ERα receptor activation relative to 10 nM E2 corresponding 100” value (ERα) is reported as 39.7% and the “ERβ receptor activation relative to 10 nM E2 corresponding 100” value (ERβ) is reported as 30.5%.

With `c1ccc(CCC2CC(c3ccccc3)=NO2)cc1` (single isomer, unassigned) [111a, 5-Phenethyl-3-phenyl-4,5-dihydroisoxazole] the “ERα receptor activation relative to 10 nM E2 corresponding 100” value (ERα) was 22.8% and the “ERβ receptor activation relative to 10 nM E2 corresponding 100” value (ERβ) was 8.5%.

`c1ccc(CCC2=NOC(Cc3cccc4ccccc34)C2)cc1` (single isomer, unassigned) [67a, 5-naphthalen-1-yl-methyl-3-phenethyl-4,5-dihydroisoxazole] was tested, and the “ERα receptor activation relative to 10 nM E2 corresponding 100” value (ERα) was 34.1% and the activation at 10 µM (ERβ) was 10.5%.

With `c1ccc(CCC2=NOC(c3ccccc3)C2)cc1` (single isomer, unassigned) [110b, 3-Phenethyl-5-phenyl-4,5-dihydroisoxazole] the “ERα receptor activation relative to 10 nM E2 corresponding 100” value (ERα) was 11.2% and the “ERβ receptor activation relative to 10 nM E2 corresponding 100” value (ERβ) was 8.1%.

`Oc1cccc(CCC2=NOC(Cc3ccccc3)C2)c1` (single isomer, unassigned) [92a, 5-Benzyl-3-[2-(3-hydroxy-phenyl)-ethyl]-4,5-dihydro-isoxazole] was tested, and the “ERα receptor activation relative to 10 nM E2 corresponding 100” value (ERα) was 19.2% and the “ERβ receptor activation relative to 10 nM E2 corresponding 100” value (ERβ) was 6.7%.

With `c1ccc(CCC2=NOC(Cc3ccccc3)C2)cc1` (single isomer, unassigned) [109b, 5-Benzyl-3-phenethyl-4,5-dihydroisoxazole] the “ERα receptor activation relative to 10 nM E2 corresponding 100” value (ERα) was 38.2% and the “ERβ receptor activation relative to 10 nM E2 corresponding 100” value (ERβ) was 1.3%.

`Oc1ccc(CC2=NOC(c3cccc(O)c3)C2)cc1` (single isomer, unassigned) [83a, 3-(4-Hydroxy-benzyl)-5-(3-hydroxy-phenyl)-4,5-dihydro-isoxazole] was tested, and the “ERα receptor activation relative to 10 nM E2 corresponding 100” value (ERα) was 30.8% and the activation at 10 µM (ERβ) was 33.2%.

In the case of `Oc1ccc(CC2CC(CCc3ccccc3)=NO2)cc1` (single isomer, unassigned) [94b, 5-(4-Hydroxy-benzyl)-3-phenethyl-4,5-dihydro-isoxazole], the “ERα receptor activation relative to 10 nM E2 corresponding 100” value (ERα) is reported as 105.2% and the “ERβ receptor activation relative to 10 nM E2 corresponding 100” value (ERβ) is reported as 42.4%.

`c1ccc(CCC2CC(Cc3ccccc3)=NO2)cc1` (stereo not shown) [108ab, 3-Benzyl-5-phenethyl-4,5-dihydroisoxazole] was tested, and the “ERα receptor activation relative to 10 nM E2 corresponding 100” value (ERα) was 37.0% and the activation at 10 µM (ERβ) was 1.2%.

With `Oc1ccccc1CCC1=NOC(Cc2ccccc2)C1` (single isomer, unassigned) [91a, 5-Benzyl-3-[2-(2-hydroxy-phenyl)-ethyl]-4,5-dihydro-isoxazole] the “ERα receptor activation relative to 10 nM E2 corresponding 100” value (ERα) was 104.8% and the activation at 10 µM (ERβ) was 19.2%.

For `Oc1ccc(CC2CC(CCc3ccccc3O)=NO2)cc1` (single isomer, unassigned) [95a, 5-(4-Hydroxy-benzyl)-3-[2-(2-hydroxy-phenyl)-ethyl]-4,5-dihydro-isoxazole], the “ERα receptor activation relative to 10 nM E2 corresponding 100” value (ERα) was 20.4% and the “ERβ receptor activation relative to 10 nM E2 corresponding 100” value (ERβ) was 2.4%.

For `c1ccc(CC2=NOC(c3ccccc3)C2)cc1` (stereo not shown) [112ab, 3-Benzyl-5-phenyl-4,5-dihydroisoxazole], the “ERα receptor activation relative to 10 nM E2 corresponding 100” value (ERα) was 19.6% and the activation at 10 µM (ERβ) was 34.4%.

For `Oc1cccc(CCC2=NOC(CCc3ccccc3)C2)c1` (single isomer, unassigned) [105b, 3-[2-(3-Hydroxy-phenyl)-ethyl]-5-phenethyl-4,5-dihydro-isoxazole], the “ERα receptor activation relative to 10 nM E2 corresponding 100” value (ERα) was 3.0% and the “ERβ receptor activation relative to 10 nM E2 corresponding 100” value (ERβ) was 3.6%.

In the case of `Oc1ccc(CC2CC(CCCc3ccc(O)c(O)c3)=NO2)cc1` (single isomer, unassigned) [103a, 3-[3-(3,4-Dihydroxy-phenyl)-propyl]-5-(4-hydroxy-benzyl)-4,5-dihydro-isoxazole], the “ERα receptor activation relative to 10 nM E2 corresponding 100” value (ERα) is reported as 1.7% and the “ERβ receptor activation relative to 10 nM E2 corresponding 100” value (ERβ) is reported as −1.1%.

`c1ccc(CCCC2=NOC(Cc3ccccc3)C2)cc1` (single isomer, unassigned) [114b, 5-Benzyl-3-(3-phenyl-propyl)-4,5-dihydro-isoxazole] was tested, and the “ERα receptor activation relative to 10 nM E2 corresponding 100” value (ERα) was 28.1% and the “ERβ receptor activation relative to 10 nM E2 corresponding 100” value (ERβ) was 5.1%.

For `Oc1ccc(CC2CC(CCCc3ccccc3)=NO2)cc1` (single isomer, unassigned) [100b, 5-(4-Hydroxy-benzyl)-3-(3-phenyl-propyl)-4,5-dihydro-isoxazole], the “ERα receptor activation relative to 10 nM E2 corresponding 100” value (ERα) was 97.2% and the “ERβ receptor activation relative to 10 nM E2 corresponding 100” value (ERβ) was 17.0%.

For `Oc1ccc(CCC2=NOC(Cc3ccc(O)cc3)C2)cc1` (single isomer, unassigned) [96a, 5-(4-Hydroxy-benzyl)-3-[2-(4-hydroxy-phenyl)-ethyl]-4,5-dihydro-isoxazole], the “ERα receptor activation relative to 10 nM E2 corresponding 100” value (ERα) was 76.2% and the “ERβ receptor activation relative to 10 nM E2 corresponding 100” value (ERβ) was 12.0%.
